Test results as given in PMC9466626, “Discovery of new 1H-pyrazolo[3,4-d]pyrimidine derivatives as anticancer agents targeting EGFR^WT and EGFR^T790M” (Journal of Enzyme Inhibition and Medicinal Chemistry, 2022).
“And” between values parts separate entries of the source, which are not always exact repeats. Equal entries are not always repeated. Where two headings read alike, the source gives them in different places.

Key:
[1] = biological target: T1, EGFR^WT (Homo sapiens, UniProt P00533); assay: EGFR^WT kinase inhibitory assay (HTRF); assay type: biochemical
T1 construct: purchased Sigma
T1 sequence (P00533 25-1210): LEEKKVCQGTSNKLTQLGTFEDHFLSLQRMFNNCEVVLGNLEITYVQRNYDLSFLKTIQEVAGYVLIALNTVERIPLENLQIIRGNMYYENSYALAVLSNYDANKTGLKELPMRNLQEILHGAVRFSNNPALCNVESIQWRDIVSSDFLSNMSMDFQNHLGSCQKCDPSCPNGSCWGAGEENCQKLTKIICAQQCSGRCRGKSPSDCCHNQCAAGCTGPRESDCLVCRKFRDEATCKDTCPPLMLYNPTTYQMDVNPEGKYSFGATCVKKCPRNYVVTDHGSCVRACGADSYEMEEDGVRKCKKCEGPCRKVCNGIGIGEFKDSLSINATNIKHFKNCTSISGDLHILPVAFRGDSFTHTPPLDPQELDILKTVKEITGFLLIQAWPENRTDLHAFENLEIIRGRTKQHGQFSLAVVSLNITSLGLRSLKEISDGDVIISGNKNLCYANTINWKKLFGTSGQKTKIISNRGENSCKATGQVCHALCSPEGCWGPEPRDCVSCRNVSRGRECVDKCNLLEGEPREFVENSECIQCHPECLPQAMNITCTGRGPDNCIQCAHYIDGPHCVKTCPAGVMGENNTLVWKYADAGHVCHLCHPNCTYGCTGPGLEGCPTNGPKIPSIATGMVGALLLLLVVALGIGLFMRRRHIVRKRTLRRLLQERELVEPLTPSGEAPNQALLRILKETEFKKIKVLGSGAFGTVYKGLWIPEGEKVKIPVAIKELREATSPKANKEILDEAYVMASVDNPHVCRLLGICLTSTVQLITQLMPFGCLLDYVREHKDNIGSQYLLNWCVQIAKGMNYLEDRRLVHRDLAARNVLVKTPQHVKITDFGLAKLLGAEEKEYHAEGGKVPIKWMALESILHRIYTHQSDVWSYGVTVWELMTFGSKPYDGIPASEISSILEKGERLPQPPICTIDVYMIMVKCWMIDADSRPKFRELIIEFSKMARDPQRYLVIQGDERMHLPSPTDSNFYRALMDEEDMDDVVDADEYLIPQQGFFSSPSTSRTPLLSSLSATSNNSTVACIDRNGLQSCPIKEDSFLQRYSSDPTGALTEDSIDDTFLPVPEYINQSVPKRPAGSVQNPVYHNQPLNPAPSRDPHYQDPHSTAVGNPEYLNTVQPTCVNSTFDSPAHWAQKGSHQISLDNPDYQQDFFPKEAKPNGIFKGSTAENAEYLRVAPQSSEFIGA
Procedure: (§1) In vitro EGFR inhibitory activity was assessed using a Homogeneous time-resolved fluorescence (HTRF) assay[56] as described in Supplementary data.
(§2) 4.1.1. EGFRWT and EGFRT790M kinase inhibitory assay […]
(§3) against four cancer cell lines were further examined for their inhibitory activities against both […]
(§4) Homogeneous time resolved fluorescence (HTRF) assay was applied in this test. EGFRWT, EGFRT790M (Sigma). firstly, the EGFRWT and/or EGFRT790M and their substrates were incubated with the tested compounds in enzymatic buffer for 5 min. […]
(§5) the enzymatic reaction. The assay was conducted for 30 min at room temperature. The reaction was stopped by addition of detection reagents which contain EDTA. The detection step continued […]
(§6) experiments were performed for each concentration. […]

[2] = in vitro; conditions: human, WI-38 normal cells
Procedure: Next, the wells were incubated for 12 h in a 5% CO 2 incubator at 37 °C. Then, for each well, the growth medium was exchanged with 0.1 ml of fresh medium containing graded concentrations of the test compounds to be or equal DMSO and incubated for two days. Then 10 μl MTT solution (5 μg/ml) was added to each well, and the cells were incubated for additional 4 h. The crystals of MTT-formazan were dissolved in 100 μl of DMSO; the absorbance of each well was measured at 490 nm using an automatic ELISA reader system (TECAN, CHE). The IC 50 values were calculated using the nonlinear regression fitting models (Graph Pad, Prism Version 5). The data represented the mean of three independent experiments in triplicate and were expressed as means ± SD.

[3] = system: A549; assay: In vitro anti-proliferative MTT assay, A549; assay type: cell-based, human; conditions: for IC50: Homo sapiens, A549
Procedure: These two cell lines were selected in this test due to the overexpression of EGFR in human lung and colon cancer cell lines[48]^,[49]. The tested cells were reported to have a high expression level of EGFR. […]
(§7) 1.1. In vitro antiproliferative activities
The in vitro antiproliferative activities of all the synthesized compounds against two human […]
evaluated quantitatively as described in the literature, using MTT assay protocol . two […]
proliferative activity was assessed quantitatively as follows.
(§8) Human cancer cell lines were dropped in 96 -well plates at a density of 3-8 × 10^3 cells/well.
Next, the wells were incubated for 12 h in a 5% CO 2 incubator at 37 °C. Then, for each well, the growth medium was exchanged with 0.1 ml of fresh medium containing graded concentrations of the test compounds to be or equal DMSO and incubated for two days. Then 10 μl MTT solution ([…]) was added to each well, and the cells were incubated for additional 4 h. The crystals of MTT-formazan were dissolved in 100 μl of DMSO; the absorbance of each well was measured at 490 nm using an automatic ELISA reader system (TECAN, CHE). The IC 50 values were calculated using the nonlinear regression fitting models (Graph Pad, Prism Version 5). The data represented the mean of three independent experiments in triplicate and were expressed as means ± SD. The […]
(§9) The results were expressed as growth inhibitory concentration (IC50) values and […]

[4] = biological target: T2, EGFR^T790M (Homo sapiens, UniProt P00533, T790M); assay: EGFR^T790M kinase inhibitory assay (HTRF); assay type: biochemical
T2 construct: purchased Sigma
T2 sequence (P00533 25-1210 T790M): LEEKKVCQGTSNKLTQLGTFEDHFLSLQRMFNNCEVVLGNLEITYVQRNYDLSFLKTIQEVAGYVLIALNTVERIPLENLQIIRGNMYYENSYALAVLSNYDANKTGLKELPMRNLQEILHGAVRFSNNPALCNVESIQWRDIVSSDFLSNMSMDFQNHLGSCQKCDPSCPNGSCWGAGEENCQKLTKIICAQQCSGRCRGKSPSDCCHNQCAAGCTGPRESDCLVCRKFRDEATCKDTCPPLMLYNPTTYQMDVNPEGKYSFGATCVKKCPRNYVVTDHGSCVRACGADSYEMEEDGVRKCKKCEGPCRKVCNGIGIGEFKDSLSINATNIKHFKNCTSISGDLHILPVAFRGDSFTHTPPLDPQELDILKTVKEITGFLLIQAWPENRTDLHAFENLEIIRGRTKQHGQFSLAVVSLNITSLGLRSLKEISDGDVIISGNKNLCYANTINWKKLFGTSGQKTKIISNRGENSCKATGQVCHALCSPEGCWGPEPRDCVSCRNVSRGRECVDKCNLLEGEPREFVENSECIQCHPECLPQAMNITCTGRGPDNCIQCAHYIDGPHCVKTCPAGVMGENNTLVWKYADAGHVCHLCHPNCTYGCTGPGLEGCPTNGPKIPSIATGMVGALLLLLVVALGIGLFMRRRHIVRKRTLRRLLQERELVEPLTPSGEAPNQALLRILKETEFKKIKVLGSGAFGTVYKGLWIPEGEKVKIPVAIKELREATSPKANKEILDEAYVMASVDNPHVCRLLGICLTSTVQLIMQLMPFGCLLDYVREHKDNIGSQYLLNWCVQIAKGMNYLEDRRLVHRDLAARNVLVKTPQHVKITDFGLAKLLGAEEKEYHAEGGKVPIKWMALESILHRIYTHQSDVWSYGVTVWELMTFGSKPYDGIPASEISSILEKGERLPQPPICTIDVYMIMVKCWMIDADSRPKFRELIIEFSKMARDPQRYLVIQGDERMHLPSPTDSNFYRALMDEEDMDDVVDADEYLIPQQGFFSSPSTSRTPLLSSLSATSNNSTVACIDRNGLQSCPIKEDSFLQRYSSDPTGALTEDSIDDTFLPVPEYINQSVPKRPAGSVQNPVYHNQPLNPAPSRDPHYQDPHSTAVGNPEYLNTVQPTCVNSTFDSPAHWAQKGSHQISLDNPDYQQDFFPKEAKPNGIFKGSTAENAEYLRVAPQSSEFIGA
Procedure: as §1, §2, §3, §4, §5, §6

[5] = system: BAX; assay: qRT-PCR gene expression of BAX in A549 cells; assay type: cell-based, human; conditions: A549, 48 h, control set to 1
Procedure: The effect of compound 12b on the expression of BAX and Bcl‐2 was determined using qRT-PCR as described in Supplementary data[60–62].

[6] = system: HCT-116; assay: In vitro anti-proliferative MTT assay, HCT-116; assay type: cell-based, human
Procedure: The cytotoxic activities of the synthesised compounds were assessed against two human cancer cell lines (lung, A549) and (colon HCT-116) using an MTT assay. These two cell lines were selected in this test due to the overexpression of EGFR in human lung and colon cancer cell lines[48]^,[49]. The tested cells were reported to have a high expression level of EGFR.
In vitro cytotoxicity was carried out for the synthesised compounds against A549, HCT-116, and WI-38 cell lines using the MTT assay protocol[52–55] as described in Supplementary data. […]
as §7
The in vitro antiproliferative activities of all the synthesized compounds against two human tumor cell lines namely, (lung, A549) and (colon HCT-116) and one normal cell line (WI-38) were evaluated quantitatively as described in the literature, using MTT assay protocol . two commercially available drugs (erlotinib) were used in this test as positive controls. The anti-proliferative activity was assessed quantitatively as follows.
as §8
Next, the wells were incubated for 12 h in a 5% CO 2 incubator at 37 °C. Then, for each well, the growth medium was exchanged with 0.1 ml of fresh medium containing graded concentrations of the test compounds to be or equal DMSO and incubated for two days. Then 10 μl MTT solution ([…]) was added to each well, and the cells were incubated for additional 4 h. The crystals of MTT-formazan were dissolved in 100 μl of DMSO; the absorbance of each well was measured at 490 nm using an automatic ELISA reader system (TECAN, CHE). The IC 50 values were calculated using the nonlinear regression fitting models (Graph Pad, Prism Version 5). The data represented the mean of three independent experiments in triplicate and were expressed as means ± SD. The IC50 value was defined as the concentration at which 50% of the cells could survive.
as §9

[7] = system: A549 cells; assay: Cell cycle analysis (flow cytometry, PI staining); assay type: cell-based, human
Procedure: The effect of compound 12b on cell cycle distribution was performed using the propidium iodide (PI) staining technique as described in Supplementary data[56–58]. […]
4.1.2. In-vitro DNA-Flow cytometric (cell cycle) analysis.
h. Then, the tested cells were collected by trypsinization and washed in PBS. Ice-cold absolute
ethanol was used for fixation of the collected cells. The cells were stained with Cycle TESTTM
PLUS DNA Reagent Kit (BD Biosciences, San Jose, CA) according to the manufacturer's
instructions. Cell-cycle distribution was evaluated using a flow cytometer. […]

[8] = supplement graph, axis Log (nM)
[9] = A549, 8.21 µM, 48 h, mean ± SEM
[10] = A549, 8.21 µM, 48 h, mean ± SEM, listed as 12 b

## CC(=NNc1nc(Nc2ccccc2)nc2c1cnn2-c1ccccc1)c1ccc(Cl)cc1 [Compound 12b, 4–(2-(1–(4-Chlorophenyl)ethylidene)hydrazinyl)-N,1-diphenyl-1H-pyrazolo[3,4-d]pyrimidin-6-amine]
[1]; HTRF, mean of three experiments, read-out: EGFR^WT IC50
  IC50: 16 nM
[1]; supplement graph
  HillSlope (best-fit value), EGFR inhibition: -0.3524
[1]; [8]
  LogIC50 (best-fit value), EGFR inhibition: 1.193
[1]; supplement graph, axis Log (nM), read-out: IC50 (best-fit value of graph), EGFR inhibition
  IC50: 15.6 nM
[2]
  IC50 at 2 days: 39.1 µM
[3]; MTT, mean of three experiments, read-out: In vitro cytotoxicity IC50, A549
  IC50: 8.21 µM
[3]; supplement IC50 graph, unit inferred, read-out: IC50 (best-fit value of graph), A549
  IC50: 8.22 µM
[3]; supplement IC50 graph
  HillSlope (best-fit value), A549: -0.3430
  LogIC50 (best-fit value), A549: 0.9146
[4]
  fold more potent than erlotinib against EGFR^T790M: 2.4 fold
[4]; HTRF, mean of three experiments, read-out: EGFR^T790M IC50
  IC50: 236 nM
[4]; supplement graph
  HillSlope (best-fit value), EGFRT790M inhibition: -0.3418
[4]; [8]
  LogIC50 (best-fit value), EGFRT790M inhibition: 2.372
[4]; supplement graph, axis Log (nM), read-out: IC50 (best-fit value of graph), EGFRT790M inhibition
  IC50: 235 nM
[5]
  Gene expression (Fold Change) BAX: 3.3 Fold Change and 3.33 ± 0.37 Fold Change
[6]; Homo sapiens, HCT-116, MTT, mean of three experiments, read-out: In vitro cytotoxicity IC50, HCT-116
  IC50: 19.6 µM
[6]; supplement IC50 graph
  HillSlope (best-fit value), HCT-116: -0.3805
  LogIC50 (best-fit value), HCT-116: 1.291
[7]; A549
  cell cycle arrest, phases: S and G2/M phases
[7]; [9]
  Cell cycle distribution % G2/M: 28.55%
  Cell cycle distribution %G1: 28.04%
  Cell cycle distribution %S: 42.39%
  Cell cycle distribution %Sub-G1: 0.89 ± 0.31%
[7]; [10]
  Cell cycle distribution % G2/M: 28.55 ± 1.61 %
  Cell cycle distribution %G1: 28.04 ± 2.78 %
  Cell cycle distribution %S: 42.39 ± 3.50 %
[7]; vs untreated A549, 48 h
  fold decrease in percentage of cells in G1 phase: ~2 fold
  fold increase in % G2/M: 1.7 fold
  fold increase in percentage of cells in S phase: 1.5 fold
